Assay results taken from publication PMC11360483, “Anti-Inflammatory, Antibacterial, Anti-Biofilm, and Anti-Quorum Sensing Activities of the Diterpenes Isolated from Clinopodium bolivianum” (Pharmaceutics, 2024).
In brackets after ≈: the same amount, converted by molar mass. Several values for one entry are separate records, joined by “and”; a condition that tells them apart may be missing. Equal entries are not always repeated. Structures can show the parent of a compound that is named as a salt. Where two headings read alike, the source gives them in different places. *1 amine or outer side, *2 acyl side, *3 side chain or, on linkers, in order; H or OH if unused. Where a SMILES comes first, the peptide text is derived from it. Bridges are numbered along the chain shown (N, C = ends). Roman numbers before positions name the chains, in order. [ ]: non-standard residue; d: D form. Actinocin(9to1) = Cc1c2oc3c(C)ccc(C(=O)[*:1])c3nc-2c(C(=O)[*:2])c(N)c1=O; NMeV = CN[C@H](C(=O)O)C(C)C; Sar = CNCC(=O)O

Tests used:
NF-κB [1] = assay: NF-κB inhibition assay (LPS-stimulated) in MRC-5; type: cell-based; conditions: Homo sapiens, read-out: NF-κB Inhibition at 24 h IC50 ± SEM
NF-κB [2] = assay: NF-κB inhibition assay (LPS-stimulated) in HBEC3-KT; type: cell-based; conditions: Homo sapiens, 24 h, read-out: NF-κB Inhibition at 24 h IC50 ± SEM
NF-κB [3] = assay: NF-κB inhibition assay (LPS-stimulated) in THP-1; type: cell-based; conditions: Homo sapiens, read-out: NF-κB Inhibition at 24 h IC50 ± SEM
S. pneumoniae [4] = type: cell-based, Streptococcus pneumoniae
H. influenzae [5] = assay: microbe, parasite or virus in culture; type: cell-based; conditions: Haemophilus influenzae, 24 h
C. violaceum [6] = assay: Anti-biofilm activity on C. violaceum; type: cell-based, Chromobacterium violaceum
S. pneumoniae [7] = assay: microbe, parasite or virus in culture; type: cell-based; conditions: Streptococcus pneumoniae, 24 h
[8] = WST-1 cytotoxicity (viability) assay, control cell line; conditions: human
H. influenzae [9] = type: cell-based, Haemophilus influenzae
L. pneumophila [10] = assay: microbe, parasite or virus in culture; type: cell-based; conditions: Legionella pneumophila, 24 h
S. aureus [11] = assay: microbe, parasite or virus in culture; type: cell-based; conditions: Staphylococcus aureus, 24 h
L. pneumophila [12] = type: cell-based, Legionella pneumophila
S. aureus [13] = type: cell-based, Staphylococcus aureus
C. violaceum [14] = type: cell-based, Chromobacterium violaceum; conditions: for % of Violacein Inhibition: at the Anti-QS concentration (compound 3 at 0.94 µM, compound 4 at 1.16 µM)
[15] = tested on: H. influenzae, L. pneumophila, S. pneumoniae, and S. aureus; type: cell-based; conditions: strain not stated
[16] = WST-1 cytotoxicity assay, cell line not singled out; conditions: human
[17] = WST-1 cytotoxicity (viability) assay; conditions: human, WST-1, 24 h, HBEC3-KT
[18] = WST-1 cytotoxicity (viability) assay; conditions: human, WST-1, 24 h, MRC-5
[19] = tested on: H. influenzae, L. pneumophila, S. pneumoniae, and S. aureus; type: cell-based; conditions: strain not stated; remark: listed apart in the source
[20] = tested on: H. influenzae, L. pneumophila, S. pneumoniae, and S. aureus; assay: organism not typed; type: cell-based
RAW 264.7 cells = tested on: RAW 264.7 cells; parameters: method as in doi:10.1016/j.phytol.2020.01.005; conditions: read-out: IC50, inhibition of nitric oxide (NO) production; cited from earlier work
Huh7 cells = tested on: Huh7 cells; parameters: method as in PMID 37423053; conditions: cited from earlier work
Hep3B cells = tested on: Hep3B cells; parameters: method as in PMID 37423053; conditions: cited from earlier work
[21] = MRC5, MRC-5, LPS-stimulated, 24 h
[22] = value given in the method for the compounds
[23] = value given in the method for the extracts
[24] = range over S. pneumoniae and S. aureus Gram-positive bacteria

SMILES | Quorum Sensing Inhibition at 24 h Anti-QS ± SEM (S. pneumoniae [4]) | MIC (H. influenzae [5]) | BIC (C. violaceum [6]) | IC50 (NF-κB [1]; [21]) | MIC (S. pneumoniae [7]) | IC50 (NF-κB [2]; LPS-stimulated) | CC50 at 24 h [8] | Quorum Sensing Inhibition at 24 h Anti-QS ± SEM (H. influenzae [9]) | MIC (L. pneumophila [10]) | MIC (S. aureus [11]) | Quorum Sensing Inhibition at 24 h Anti-QS ± SEM (L. pneumophila [12]) | Quorum Sensing Inhibition at 24 h Anti-QS ± SEM (S. aureus [13]) | Anti-QS (C. violaceum [14]) | % of Violacein Inhibition (C. violaceum [14]) | IC50 (NF-κB [3]; THP-1, LPS-stimulated, 24 h) | other results
CC1=C(O)C(=O)C=C2C1=CC=C1[C@@]2(C)CC[C@@]2(C)[C@@H]3C[C@](C)(C(=O)O)CC[C@]3(C)CC[C@]12C [CEL, Celastrol, reference compound] | – | – | – | – | – | – | – | – | – | – | – | – | – | – | – | IC50 (NF-κB [1]; MRC5, 24 h): 7.41 µM and 3.27 µg/mL; IC50 (NF-κB [2]): 7.15 µM and 3.24 µg/mL; IC50 (NF-κB [3]; THP-1, 24 h): 7.63 µM and 3.34 µg/mL
CC(C)(O)C1=CC2=CCC3[C@](C)(CCC[C@@]3(C)C(=O)O)C2CC1=O (some centres unmarked) [Compound 1, 15-Hydroxy-12-oxo-abietic acid] | 9.89 ± 0.04 µM | 28.3 µM (≈ 9.42 µg/mL) | 11.31 ± 0.07 µM | 39.01 ± 0.22 µM | 4.14 µM (≈ 1.38 µg/mL) | 27.9 ± 0.89 µM | 88.4 µM | 4.64 ± 0.09 µM | 20.2 µM (≈ 6.72 µg/mL) | 7.88 µM (≈ 2.62 µg/mL) | 2.44 ± 0.09 µM | 12.24 ± 0.08 µM | 4.83 ± 0.05 µM | 20.45% | 43.4 ± 0.73 µM | –
O=C1C=C(Br)/C(=C/Br)O1 [Furanone C-30, (Z)-4-Bromo-5-(bromomethylene)-2(5H)-furanone, reference compound] | 12.03 ± 0.08 μM and 3.44 ± 0.06 μg/mL | – | – | – | – | – | – | 11.81 ± 0.05 μM and 3.21 ± 0.02 μg/mL | – | – | 11.59 ± 0.03 μM and 3.03 ± 0.08 μg/mL | 12.67 ± 0.02 μM and 3.77 ± 0.04 μg/mL | – | – | – | Anti-QS value of positive control [15, 22]: 11.81 µM; Anti-QS value of positive control [15, 23]: 3 µg/mL
Cc1c2oc3c(C)ccc(C(=O)N[C@@H]4C(=O)N[C@H](C(C)C)C(=O)N5CCC[C@H]5C(=O)N(C)CC(=O)N(C)[C@@H](C(C)C)C(=O)O[C@@H]4C)c3nc-2c(C(=O)N[C@@H]2C(=O)N[C@H](C(C)C)C(=O)N3CCC[C@H]3C(=O)N(C)CC(=O)N(C)[C@@H](C(C)C)C(=O)O[C@@H]2C)c(N)c1=O [ACTD, Actinomycin D, reference compound] (I: T[dV]P[Sar][NMeV] / II: T[dV]P[Sar][NMeV]; ester I:1-I:C, II:1-II:C; linker I:N-II:N via Actinocin(9to1)) | – | – | – | – | – | – | – | – | – | – | – | – | – | – | – | CC50 at 24 h ([16]; CC50, cell line not singled out, for the compounds): 0.008 µM; CC50 at 24 h ([16]; CC50 of positive control, value given in the method for the extracts, cell line not stated): 0.01 µg/mL; CC50 at 24 h [17]: 0.014 µg/mL and 10 nM; CC50 at 24 h ([8]; Viability (CC50), WST-1, 24 h, THP-1): 0.019 µg/mL and 10 nM; CC50 at 24 h [18]: 0.017 µg/mL and 10 nM
CC(C)C1=CC2=CC[C@@H]3[C@](C)(CCC[C@@]3(C)C(=O)O)[C@H]2C[C@@H]1O [Compound 2, 12α-Hydroxyabietic acid] | 8.14 ± 0.05 µM | 23.5 µM (≈ 7.47 µg/mL) | 7.54 ± 0.05 µM | 26.9 ± 0.61 µM | 3.31 µM (≈ 1.05 µg/mL) | 21.9 ± 0.23 µM | 84.3 µM | 3.19 ± 0.04 µM | 17.2 µM (≈ 5.49 µg/mL) | 5.42 µM (≈ 1.73 µg/mL) | 1.95 ± 0.07 µM | 11.81 ± 0.07 µM | 3.55 ± 0.06 µM | 48.88% | 32.6 ± 0.69 µM | –
N=C(NCCCCCCNC(=N)NC(=N)Nc1ccc(Cl)cc1)NC(=N)Nc1ccc(Cl)cc1.O=C(O)[C@H](O)[C@@H](O)[C@H](O)[C@H](O)CO.O=C(O)[C@H](O)[C@@H](O)[C@H](O)[C@H](O)CO [CHG, chlorhexidine digluconate] | – | – | – | – | – | – | – | – | – | – | – | – | – | – | – | BIC of reference control [19, 22]: 2.23 µM; BIC of reference control [19, 23]: 2000 µg/mL
CC(C)(O)c1ccc2c(c1)CC[C@H]1[C@](C)(C(=O)O)CCC[C@]21C [Compound 4, 15-Hydroxydehydroabietic acid] | 7.78 ± 0.01 µM | 15.4 µM (≈ 4.88 µg/mL) | 5.81 ± 0.02 µM | 17.4 ± 0.82 µM | 2.06 µM (≈ 0.652 µg/mL) | 10.8 ± 0.69 µM | 78.9 µM | 2.39 ± 0.03 µM | 9.83 µM (≈ 3.11 µg/mL) | 4.06 µM (≈ 1.28 µg/mL) | 1.21 ± 0.04 µM | 10.08 ± 0.08 µM | 1.16 ± 0.06 µM | 71.60% | 23.4 ± 0.71 µM | MIC [20, 24]: 2.06 to 4.06 µM; IC50 (RAW 264.7 cells): 50.9 µM
O=C(O)c1cn(C2CC2)c2cc(N3CCNCC3)c(F)cc2c1=O [CIP, Ciprofloxacin hydrochloride, reference compound] | – | – | 2.13 ± 0.01 µM | – | – | – | – | – | – | – | – | – | 1.51 ± 0.01 µM | 71.68% | – | violacein inhibitory concentration (CIV) (C. violaceum [14]; reference standard): 1.51 µM
CC1COc2c(N3CCN(C)CC3)c(F)cc3c(=O)c(C(=O)O)cn1c23 (centres unmarked) [OFX, Ofloxacin, reference compound] | – | 12.3 µg/mL and 28.4 µM | – | – | 9.03 µg/mL and 25.1 µM | – | – | – | 11.3 µg/mL and 26.8 µM | 10 µg/mL and 24.1 µM | – | – | – | – | – | MIC ([20]; read-out: MIC of positive control, for the compounds, strain not stated or range over the four strains): 27.7 µM; MIC ([20]; read-out: MIC of positive control, value given in the method for the extracts, strain not stated): 10 µg/mL
CC1=C2C=C3CCC4C(C)(C)CCC[C@]4(C)C3CC2OC1=O (single isomer, unassigned; (-)) [Compound 3, (−)-Jolkinolide E] | 3.01 ± 0.07 µM | 4.89 µM (≈ 1.47 µg/mL) | 1.62 ± 0.06 µM | 23.96 ± 0.21 µM | 0.53 µM (≈ 0.159 µg/mL) | 18 ± 0.37 µM | 71.2 µM | 0.64 ± 0.01 µM | 1.71 µM (≈ 0.514 µg/mL) | 1.09 µM (≈ 0.327 µg/mL) | 0.31 ± 0.03 µM | 4.88 ± 0.09 µM | 0.94 ± 0.03 µM | 78.13% | 29.4 ± 0.48 µM | CC50 at 24 h [16]: > 70 µM; cytotoxicity (Huh7 cells): 39.53 µM; MIC [20, 24]: 0.53 to 1.09 µM; cytotoxicity (Hep3B cells): 37.23 µM
